Source: patent US20240279278A1, “NMU RECEPTOR 2 AGONISTS” (Boehringer Ingelheim International GmbH, priority 2023, published 2024)
Residues, ends and D or L forms follow the SMILES beside them.

How the values were obtained:
Assay type in all cases: cell-based
human NMUR2 receptor [1] = target: T1, human NMUR2 receptor (Homo sapiens, UniProt Q9GZQ4); experiment: IP1 Gq HTRF assay, activation of human NMUR2 in buffer; set-up: expressed in transfected cells; host or cells: CHO-K1; conditions: CHO-K1 cells expressing human NMUR2, stimulation buffer with 0.1% BSA; read-out: EC50 (hNMUR2) buffer
Procedure, shortened: (§1)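 CHO-K1 cells stably expressing human NMUR1 or NMUR2, seeded 24 h before assay, stimulated with peptide agonists (8-point dose-response, 1% DMSO final) in HEPES/HBSS buffer with 50 mM LiCl and 0.1% BSA, pH 7.4, 1 h at 37 °C. IP1 accumulation read by HTRF competition (665/620 nm); EC50 from 4-parameter sigmoidal fit.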

human NMUR2 receptor [2] = target: T1, human NMUR2 receptor; experiment: IP1 Gq HTRF assay, activation of human NMUR2 in human plasma; set-up: expressed in transfected cells; host or cells: CHO-K1; conditions: CHO-K1 cells expressing human NMUR2, 100% human plasma; read-out: EC50 (hNMUR2) human plasma
Procedure, shortened: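 CHO-K1 cells stably expressing human NMUR2 exposed to peptide agonists (8-point dose-response) in 100% human plasma with 50 mM LiCl, 1% DMSO, for 1 h at 37° C. IP1 accumulation read by HTRF competition (665/620 nm ratio). EC50 from 4-parameter sigmoidal fit.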

human NMUR1 receptor = target: T2, human NMUR1 receptor (Homo sapiens, UniProt Q9HB89); experiment: IP1 Gq HTRF assay, activation of human NMUR1 in buffer; conditions: CHO-K1 cells expressing human NMUR1, stimulation buffer with 0.1% BSA; read-out: EC50 (hNMUR1) buffer
T2 construct: expressed in transfected cells; host or cells: CHO-K1
T2 sequence (Q9HB89 1-426): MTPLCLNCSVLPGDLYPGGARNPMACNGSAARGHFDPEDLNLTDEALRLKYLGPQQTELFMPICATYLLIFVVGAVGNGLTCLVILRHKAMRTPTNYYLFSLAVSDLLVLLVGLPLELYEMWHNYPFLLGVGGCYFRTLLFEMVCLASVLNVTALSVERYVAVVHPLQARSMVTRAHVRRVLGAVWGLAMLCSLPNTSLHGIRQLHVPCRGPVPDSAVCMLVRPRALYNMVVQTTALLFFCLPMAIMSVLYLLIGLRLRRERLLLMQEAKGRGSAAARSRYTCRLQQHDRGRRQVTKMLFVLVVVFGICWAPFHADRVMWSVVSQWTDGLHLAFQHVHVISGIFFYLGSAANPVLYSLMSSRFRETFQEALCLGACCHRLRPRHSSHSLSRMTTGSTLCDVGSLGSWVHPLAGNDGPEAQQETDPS
Procedure, shortened: as §1

T1 sequence (Q9GZQ4 whole entry): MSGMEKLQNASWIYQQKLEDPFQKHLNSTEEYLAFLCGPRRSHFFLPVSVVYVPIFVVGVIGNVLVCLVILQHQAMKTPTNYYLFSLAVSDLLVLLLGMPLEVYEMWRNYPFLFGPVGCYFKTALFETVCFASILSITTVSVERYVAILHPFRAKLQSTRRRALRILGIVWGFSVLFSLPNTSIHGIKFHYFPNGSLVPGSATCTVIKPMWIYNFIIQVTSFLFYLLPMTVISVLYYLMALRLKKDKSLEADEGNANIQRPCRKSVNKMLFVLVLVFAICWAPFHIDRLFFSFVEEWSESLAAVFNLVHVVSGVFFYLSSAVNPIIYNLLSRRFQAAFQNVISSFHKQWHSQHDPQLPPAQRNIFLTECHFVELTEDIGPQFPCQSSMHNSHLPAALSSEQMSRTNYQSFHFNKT

Row | Compound | EC50 (human NMUR2 receptor [1]) | EC50 (human NMUR2 receptor [2]) | EC50 (human NMUR1 receptor)
1 | CCCC[C@H](NC(=O)[C@H](CC(C)C)N(C)C(=O)[C@H](Cc1ccccc1)NC(=O)[C@H](Cc1ccc(O)cc1)NC(=O)CN1CCN(CCNC(=O)CN(C)C(=O)CN(C)C(=O)CN(C)C(=O)CN(C)C(=O)CN(C)C(=O)CN(C)C(=O)CN(C)C(=O)CN(C)C(=O)CN(C)C(=O)CN(C)C(=O)CN(C)C(=O)CN(C)C(=O)CC[C@H](NC(=O)CC[C@H](NC(=O)CC[C@H](NC(=O)CCCCCCCCCCCCCCCCCCC(=O)O)C(=O)O)C(=O)O)C(=O)O)CC1)C(=O)N[C@@H](CCCNC(=N)N)C(=O)N1CCC[C@H]1C(=O)N[C@@H](CCCNC(=N)N)C(=O)NCC(N)=O [Compound 6, C20DA-gGlu3-Sar12-AEPipAc-Tyr-Phe-NMeLeu-Nle-Arg-Pro-Arg-Gly-NH2] | 2 nM | 6.9 nM | 120 nM
2 | CCCC[C@H](NC(=O)[C@H](CC(C)C)N(C)C(=O)[C@H](Cc1ccccc1)NC(=O)[C@H](Cc1ccc(O)cc1)NC(=O)CN1CCN(CCNC(=O)CN(C)C(=O)CN(C)C(=O)CN(C)C(=O)CN(C)C(=O)CN(C)C(=O)CN(C)C(=O)CN(C)C(=O)CN(C)C(=O)CN(C)C(=O)CN(C)C(=O)CN(C)C(=O)CN(C)C(=O)CC[C@H](NC(=O)CC[C@H](NC(=O)CC[C@H](NC(=O)CCCCCCCCCCCCCCCCCCC(=O)O)C(=O)O)C(=O)O)C(=O)O)CC1)C(=O)N[C@@H](CCN)C(=O)N1CCC[C@H]1C(=O)N[C@@H](CCCNC(=N)N)C(=O)NCC(N)=O [Compound 8, C20DA-gGlu3-Sar12-AEPipAc-Tyr-Phe-NMeLeu-Nle-Dbu-Pro-Arg-Gly-NH2] | 3.1 nM | 9 nM | 1000 nM
3 | CCCC[C@H](NC(=O)[C@H](CC(C)C)N(C)C(=O)[C@H](Cc1ccccc1)NC(=O)[C@H](Cc1ccc(O)cc1)NC(=O)CN1CCN(CCNC(=O)CN(C)C(=O)CN(C)C(=O)CN(C)C(=O)CN(C)C(=O)CN(C)C(=O)CN(C)C(=O)CN(C)C(=O)CN(C)C(=O)CN(C)C(=O)CN(C)C(=O)CN(C)C(=O)CN(C)C(=O)CN(C)C(=O)CN(C)C(=O)CN(C)C(=O)CC[C@H](NC(=O)CC[C@H](NC(=O)CC[C@H](NC(=O)CCCCCCCCCCCCCCCCCCC(=O)O)C(=O)O)C(=O)O)C(=O)O)CC1)C(=O)N[C@@H](CCCNC(=N)N)C(=O)N1CCC[C@H]1C(=O)N[C@@H](CCCNC(=N)N)C(=O)NCC(N)=O [Compound 9, C20DA-gGlu3-Sar15-AEPipAc-Tyr-Phe-NMeLeu-Nle-Arg-Pro-Arg-Gly-NH2] (HELM PEPTIDE1{[O=C(O)CCCCCCCCCCCCCCCCCCC(=O)[*:2]].[gGlu].[gGlu].[gGlu].[Sar].[Sar].[Sar].[Sar].[Sar].[Sar].[Sar].[Sar].[Sar].[Sar].[Sar].[Sar].[Sar].[Sar].[Sar].[O=C(CN1CCN(CCN[*:1])CC1)[*:2]].Y.F.[meL].[Nle].R.P.R.G.[am]}$$$$V2.0) | 2.8 nM | 5.8 nM | 220 nM
4 | CCCC[C@H](NC(=O)[C@H](CC(C)C)N(C)C(=O)[C@H](Cc1ccccc1)NC(=O)[C@H](Cc1ccc(O)cc1)NC(=O)CN1CCN(CCNC(=O)CN(C)C(=O)CN(C)C(=O)CN(C)C(=O)CN(C)C(=O)CN(C)C(=O)CN(C)C(=O)CN(C)C(=O)CN(C)C(=O)CN(C)C(=O)CN(C)C(=O)CN(C)C(=O)CN(C)C(=O)CN(C)C(=O)CN(C)C(=O)CN(C)C(=O)CC[C@H](NC(=O)CC[C@H](NC(=O)CC[C@H](NC(=O)CCCCCCCCCCCCCCCCCCC(=O)O)C(=O)O)C(=O)O)C(=O)O)CC1)C(=O)N[C@@H](CCCNC(=N)N)C(=O)N(C)[C@@H](C)C(=O)N[C@@H](CCCNC(=N)N)C(=O)NCC(N)=O [Compound 10, C20DA-gGlu3-Sar15-AEPipAc-Tyr-Phe-NMeLeu-Nle-Arg-NMeAla-Arg-Gly-NH2] (HELM PEPTIDE1{[O=C(O)CCCCCCCCCCCCCCCCCCC(=O)[*:2]].[gGlu].[gGlu].[gGlu].[Sar].[Sar].[Sar].[Sar].[Sar].[Sar].[Sar].[Sar].[Sar].[Sar].[Sar].[Sar].[Sar].[Sar].[Sar].[O=C(CN1CCN(CCN[*:1])CC1)[*:2]].Y.F.[meL].[Nle].R.[meA].R.G.[am]}$$$$V2.0) | 4.1 nM | 9.8 nM | 720 nM
5 | CCCC[C@H](NC(=O)[C@H](CC(C)C)N(C)C(=O)[C@H](Cc1ccccc1)NC(=O)[C@H](Cc1ccc(O)cc1)NC(=O)CN1CCN(CCNC(=O)CN(C)C(=O)CN(C)C(=O)CN(C)C(=O)CN(C)C(=O)CN(C)C(=O)CN(C)C(=O)CN(C)C(=O)CN(C)C(=O)CN(C)C(=O)CN(C)C(=O)CN(C)C(=O)CN(C)C(=O)CN(C)C(=O)CN(C)C(=O)CN(C)C(=O)CC[C@H](NC(=O)CC[C@H](NC(=O)CC[C@H](NC(=O)CCCCCCCCCCCCCCCCC(=O)O)C(=O)O)C(=O)O)C(=O)O)CC1)C(=O)N[C@@H](CCCNC(=N)N)C(=O)N(C)[C@@H](C)C(=O)N[C@@H](CCCNC(=N)N)C(=O)NCC(N)=O [Compound 11, C18DA-gGlu3-Sar15-AEPipAc-Tyr-Phe-NMeLeu-Nle-Arg-NMeAla-Arg-Gly-NH2] (HELM PEPTIDE1{[O=C(O)CCCCCCCCCCCCCCCCC(=O)[*:2]].[gGlu].[gGlu].[gGlu].[Sar].[Sar].[Sar].[Sar].[Sar].[Sar].[Sar].[Sar].[Sar].[Sar].[Sar].[Sar].[Sar].[Sar].[Sar].[O=C(CN1CCN(CCN[*:1])CC1)[*:2]].Y.F.[meL].[Nle].R.[meA].R.G.[am]}$$$$V2.0) | 2.8 nM | 10.6 nM | 1100 nM
6 | CCCC[C@H](NC(=O)[C@H](CC(C)C)N(C)C(=O)[C@H](Cc1ccccc1)NC(=O)[C@H](Cc1ccc(O)cc1)NC(=O)CN1CCN(CCNC(=O)CN(C)C(=O)CN(C)C(=O)CN(C)C(=O)CN(C)C(=O)CN(C)C(=O)CN(C)C(=O)CN(C)C(=O)CN(C)C(=O)CN(C)C(=O)CN(C)C(=O)CN(C)C(=O)CN(C)C(=O)CC[C@H](NC(=O)CC[C@H](NC(=O)CC[C@H](NC(=O)CCCCCCCCCCCCCCCCC(=O)O)C(=O)O)C(=O)O)C(=O)O)CC1)C(=O)N[C@@H](CCCNC(=N)N)C(=O)N(C)[C@@H](C)C(=O)N[C@@H](CCCNC(=N)N)C(=O)NCC(N)=O [Compound 12, C18DA-gGlu3-Sar12-AEPipAc-Tyr-Phe-NMeLeu-Nle-Arg-NMeAla-Arg-Gly-NH2] | 2.7 nM | 12.9 nM | 1000 nM
7 | CCCC[C@H](NC(=O)[C@H](CC(C)C)N(C)C(=O)[C@H](Cc1ccccc1)NC(=O)[C@H](Cc1ccc(O)cc1)NC(=O)CN1CCN(CCNC(=O)CN(C)C(=O)CN(C)C(=O)CN(C)C(=O)CN(C)C(=O)CN(C)C(=O)CN(C)C(=O)CN(C)C(=O)CN(C)C(=O)CN(C)C(=O)CN(C)C(=O)CN(C)C(=O)CN(C)C(=O)CC[C@H](NC(=O)CC[C@H](NC(=O)CC[C@H](NC(=O)CCCCCCCCCCCCCCCCC(=O)O)C(=O)O)C(=O)O)C(=O)O)CC1)C(=O)N[C@@H](CCCN)C(=O)N(C)[C@@H](C)C(=O)N[C@@H](CCCNC(=N)N)C(=O)NCC(N)=O [Compound 20, C18DA-gGlu3-Sar12-AEPipAc-Tyr-Phe-NMeLeu-Nle-Orn-NMeAla-Arg-Gly-NH2] | 2.2 nM | 12.1 nM | > 1000 nM
8 | CCCC[C@H](NC(=O)[C@H](CC(C)C)N(C)C(=O)[C@H](Cc1ccccc1)NC(=O)[C@H](Cc1ccc(O)cc1)NC(=O)CN1CCN(CCNC(=O)CN(C)C(=O)CN(C)C(=O)CN(C)C(=O)CN(C)C(=O)CN(C)C(=O)CN(C)C(=O)CN(C)C(=O)CN(C)C(=O)CN(C)C(=O)CN(C)C(=O)CN(C)C(=O)CN(C)C(=O)CN(C)C(=O)CN(C)C(=O)CN(C)C(=O)CC[C@H](NC(=O)CC[C@H](NC(=O)CC[C@H](NC(=O)CCCCCCCCCCCCCCCCC(=O)O)C(=O)O)C(=O)O)C(=O)O)CC1)C(=O)N[C@@H](CCCN)C(=O)N1CCC[C@H]1C(=O)N[C@@H](CCCNC(=N)N)C(=O)NCC(N)=O [Compound 21, C18DA-gGlu3-Sar15-AEPipAc-Tyr-Phe-NMeLeu-Nle-Orn-Pro-Arg-Gly-NH2] (HELM PEPTIDE1{[O=C(O)CCCCCCCCCCCCCCCCC(=O)[*:2]].[gGlu].[gGlu].[gGlu].[Sar].[Sar].[Sar].[Sar].[Sar].[Sar].[Sar].[Sar].[Sar].[Sar].[Sar].[Sar].[Sar].[Sar].[Sar].[O=C(CN1CCN(CCN[*:1])CC1)[*:2]].Y.F.[meL].[Nle].[Orn].P.R.G.[am]}$$$$V2.0) | 2.6 nM | 8.7 nM | > 1000 nM
